Format in all cases: biochemical
One experiment addresses T1, cpSRP54 (Arabidopsis thaliana, UniProt P37107).
T1 sequence (P37107 76-564): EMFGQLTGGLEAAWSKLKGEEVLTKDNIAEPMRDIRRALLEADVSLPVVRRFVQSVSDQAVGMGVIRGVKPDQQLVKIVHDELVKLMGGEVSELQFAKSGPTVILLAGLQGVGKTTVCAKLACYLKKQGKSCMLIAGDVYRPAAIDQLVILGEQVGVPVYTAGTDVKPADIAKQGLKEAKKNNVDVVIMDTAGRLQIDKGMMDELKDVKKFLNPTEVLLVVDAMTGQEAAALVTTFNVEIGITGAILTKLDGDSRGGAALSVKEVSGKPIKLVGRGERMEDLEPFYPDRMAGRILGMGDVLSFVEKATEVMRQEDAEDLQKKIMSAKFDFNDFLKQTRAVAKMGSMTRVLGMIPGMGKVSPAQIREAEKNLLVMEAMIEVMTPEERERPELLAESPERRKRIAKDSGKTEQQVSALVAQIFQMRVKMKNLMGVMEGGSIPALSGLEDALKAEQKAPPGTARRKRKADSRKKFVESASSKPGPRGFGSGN
The experiment can be described thus: basal GTP binding / GTPase assay. To be noted: 25 °C, pH 7.5, Mg(OAc)2; cpSRP54 alone.

The next experiment concerns the target T2, cpSRP54•cpFtsY complex (Arabidopsis thaliana, UniProt O80842+P37107).
T2 sequence (P37107 76-564): T1 sequence (P37107 76-564)
T2 sequence (O80842 41-366): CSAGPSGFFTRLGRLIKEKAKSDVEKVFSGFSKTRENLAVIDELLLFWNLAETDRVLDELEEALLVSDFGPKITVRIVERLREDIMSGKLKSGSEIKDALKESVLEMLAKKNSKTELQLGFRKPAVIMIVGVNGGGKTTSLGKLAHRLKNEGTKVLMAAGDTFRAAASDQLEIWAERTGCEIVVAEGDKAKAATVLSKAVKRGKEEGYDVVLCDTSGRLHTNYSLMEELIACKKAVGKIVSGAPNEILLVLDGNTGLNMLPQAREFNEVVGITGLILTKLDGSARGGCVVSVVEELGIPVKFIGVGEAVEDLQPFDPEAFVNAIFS
Description: reciprocally stimulated multiple-turnover GTPase assay. To be noted: 25 °C, pH 7.5, 100 μM GTP, 100 nM cpSRP54, varied cpFtsY.

For the next experiment, the target named is T3, cpFtsY (Arabidopsis thaliana, UniProt O80842).
T3 sequence (O80842 41-366): T2 sequence (O80842 41-366)
The experiment can be described thus: basal GTP binding / GTPase assay. To be noted: 25 °C, pH 7.5, Mg(OAc)2; cpFtsY alone.

`Nc1nc2c(ncn2[C@@H]2O[C@H](COP(=O)(O)OP(=O)(O)OP(=O)(O)O)[C@@H](O)[C@H]2O)c(=O)[nH]1` [GTP]: the “basal GTP binding / GTPase assay” value at cpSRP54 was “basal GTP binding and hydrolysis activity (Tables S3 and S4 of Supporting Information, respectively)”; on cpFtsY it was “basal GTP binding and hydrolysis activity (Tables S3 and S4 of Supporting Information, respectively)”. Also, the “reciprocally stimulated multiple-turnover GTPase assay” value on cpSRP54•cpFtsY complex is “reciprocally stimulated GTPase reaction between cpFtsY and cpSRP”.

(Values after publication PMC6309729 (Biochemistry, 2011).)
